Source: patent US10131652B2, “Pyrimidinyloxy benzene derivatives as herbicides” (E. I. DU PONT DE NEMOURS AND COMPANY, priority 2014, dated 2018)
Like-named read-outs stand apart in the source and are kept apart here.

Legend:
Assay in all cases: Test D pre-/postemergence plant response
Type in all cases: in vivo
[1] = test system: blackgrass (Alopecurus myosuroides); settings: Alopecurus myosuroides; for pest or weed control at 16 g/ha: 16 g ai/ha; for pest or weed control at 31 g/ha: 31 g ai/ha; for pest or weed control at 62 g/ha: 62 g ai/ha; for pest or weed control at 125 g/ha: 125 g ai/ha
Excerpt: (§1) Seeds of plant species selected from blackgrass (Alopecurus myosuroides), Italian ryegrass (Lolium multiflorum), winter wheat (Triticum aestivum), galium (catchweed bedstraw, Galium aparine), corn (Zea mays), large (Lg) crabgrass (Digitaria sanguinalis), giant foxtail (Setaria faberii), johnsongrass (Sorghum halepense), lambsquarters (Chenopodium album), morningglory (Ipomoea coccinea), yellow nutsedge (Cyperus esculentus), pigweed (Amaranthus retroflexus), ragweed (common ragweed, Ambrosia elatior), soybean (Glycine max), bamyardgrass (Echinochloa crus-galli), oilseed rape (Brassica napus), waterhemp (common waterhemp, Amaranthus rudis), and velvetleaf (Abutilon theophrasti) were planted into a blend of loam soil and sand and treated preemergence with test chemicals formulated in a non-phytotoxic solvent mixture which included a surfactant. At the same time, plants selected from these crop and weed species and also kochia (Kochia scoparia), wild oat (Avena fatua), and chickweed (common chickweed, Stellaria media) were planted in pots containing Redi-Earth® planting medium (Scotts Company, 14111 Scottslawn Road, Marysville, Ohio 43041) comprising spaghnum peat moss, vermiculite, wetting agent and starter nutrients and treated with postemergence applications of test chemicals formulated in the same manner. Plants ranged in height from 2 to 18 cm (1- to 4-leaf stage) for postemergence treatments. Treated plants and controls were maintained in a greenhouse for 13 to 15 days, after which time all species were compared to controls and visually evaluated. Plant response ratings, summarized in Table D, are based on a scale of 0 to 100 where 0 is no effect and 100 is complete control. A dash (-) response means no test result.

[2] = test system: velvetleaf (Abutilon theophrasti); settings: Abutilon theophrasti; for pest or weed control at 16 g/ha: 16 g ai/ha; for pest or weed control at 31 g/ha: 31 g ai/ha; for pest or weed control at 62 g/ha: 62 g ai/ha; for pest or weed control at 125 g/ha: 125 g ai/ha
Excerpt: as §1

soybean (Glycine max) = settings: Glycine max; for plant injury at 16 g/ha: 16 g ai/ha; for plant injury at 31 g/ha: 31 g ai/ha; for plant injury at 62 g/ha: 62 g ai/ha; for plant injury at 125 g/ha: 125 g ai/ha
Excerpt: as §1

[3] = test system: yellow nutsedge (Cyperus esculentus); settings: Cyperus; for pest or weed control at 16 g/ha: 16 g ai/ha; for pest or weed control at 31 g/ha: 31 g ai/ha; for pest or weed control at 62 g/ha: 62 g ai/ha; for pest or weed control at 125 g/ha: 125 g ai/ha
Excerpt: as §1

[4] = test system: morningglory (Ipomoea coccinea); settings: Ipomoea; for pest or weed control at 16 g/ha: 16 g ai/ha; for pest or weed control at 31 g/ha: 31 g ai/ha; for pest or weed control at 62 g/ha: 62 g ai/ha; for pest or weed control at 125 g/ha: 125 g ai/ha
Excerpt: as §1

[5] = test system: galium (catchweed bedstraw, Galium aparine); settings: Galium; for pest or weed control at 16 g/ha: 16 g ai/ha; for pest or weed control at 31 g/ha: 31 g ai/ha; for pest or weed control at 62 g/ha: 62 g ai/ha; for pest or weed control at 125 g/ha: 125 g ai/ha
Excerpt: as §1

[6] = test system: waterhemp (common waterhemp, Amaranthus rudis); settings: Amaranthus tuberculatus; for pest or weed control at 16 g/ha: 16 g ai/ha; for pest or weed control at 31 g/ha: 31 g ai/ha; for pest or weed control at 62 g/ha: 62 g ai/ha; for pest or weed control at 125 g/ha: 125 g ai/ha
Excerpt: as §1

[7] = test system: large (Lg) crabgrass (Digitaria sanguinalis); settings: Digitaria sanguinalis; for pest or weed control at 16 g/ha: 16 g ai/ha; for pest or weed control at 31 g/ha: 31 g ai/ha; for pest or weed control at 62 g/ha: 62 g ai/ha; for pest or weed control at 125 g/ha: 125 g ai/ha
Excerpt: as §1

[8] = test system: giant foxtail (Setaria faberii); settings: Setaria faberi; for pest or weed control at 16 g/ha: 16 g ai/ha; for pest or weed control at 31 g/ha: 31 g ai/ha; for pest or weed control at 62 g/ha: 62 g ai/ha; for pest or weed control at 125 g/ha: 125 g ai/ha
Excerpt: as §1

[9] = post-emergence, Postemergence, scale 0 to 100 (0 no effect, 100 complete control), read-out: Blackgrass plant response rating
[10] = post-emergence, Postemergence, scale 0 to 100, 0 no effect, 100 complete control, read-out: Plant response rating, Blackgrass
[11] = pre-emergence, Preemergence, scale 0 to 100 (0 no effect, 100 complete control), read-out: Plant response rating, Blackgrass
[12] = post-emergence, Postemergence, scale 0 to 100 (0 no effect, 100 complete control), read-out: Velvetleaf plant response rating
[13] = post-emergence, Postemergence, scale 0 to 100, 0 no effect, 100 complete control, read-out: Plant response rating, Velvetleaf
[14] = pre-emergence, Preemergence, scale 0 to 100 (0 no effect, 100 complete control), read-out: Plant response rating, Velvetleaf
[15] = post-emergence, Postemergence, scale 0 to 100 (0 no effect, 100 complete control), read-out: Soybean plant response rating
[16] = post-emergence, Postemergence, scale 0 to 100, 0 no effect, 100 complete control, read-out: Plant response rating, Soybean
[17] = pre-emergence, Preemergence, scale 0 to 100 (0 no effect, 100 complete control), read-out: Plant response rating, Soybean
[18] = post-emergence, Postemergence, scale 0 to 100 (0 no effect, 100 complete control), read-out: Nutsedge, Yellow plant response rating
[19] = post-emergence, Postemergence, scale 0 to 100, 0 no effect, 100 complete control, read-out: Plant response rating, Nutsedge, Yellow
[20] = pre-emergence, Preemergence, scale 0 to 100 (0 no effect, 100 complete control), read-out: Plant response rating, Nutsedge, Yellow
[21] = post-emergence, Postemergence, scale 0 to 100 (0 no effect, 100 complete control), read-out: Morningglory plant response rating
[22] = post-emergence, Postemergence, scale 0 to 100, 0 no effect, 100 complete control, read-out: Plant response rating, Morningglory
[23] = pre-emergence, Preemergence, scale 0 to 100 (0 no effect, 100 complete control), read-out: Plant response rating, Morningglory
[24] = post-emergence, Postemergence, scale 0 to 100 (0 no effect, 100 complete control), read-out: Galium plant response rating
[25] = post-emergence, Postemergence, scale 0 to 100, 0 no effect, 100 complete control, read-out: Plant response rating, Galium
[26] = pre-emergence, Preemergence, scale 0 to 100 (0 no effect, 100 complete control), read-out: Plant response rating, Galium
[27] = post-emergence, Postemergence, scale 0 to 100 (0 no effect, 100 complete control), read-out: Waterhemp plant response rating
[28] = post-emergence, Postemergence, scale 0 to 100, 0 no effect, 100 complete control, read-out: Plant response rating, Waterhemp
[29] = pre-emergence, Preemergence, scale 0 to 100 (0 no effect, 100 complete control), read-out: Plant response rating, Waterhemp
[30] = post-emergence, Postemergence, scale 0 to 100 (0 no effect, 100 complete control), read-out: Crabgrass, Large plant response rating
[31] = post-emergence, Postemergence, scale 0 to 100, 0 no effect, 100 complete control, read-out: Plant response rating, Crabgrass, Large
[32] = pre-emergence, Preemergence, scale 0 to 100 (0 no effect, 100 complete control), read-out: Plant response rating, Crabgrass, Large
[33] = post-emergence, Postemergence, scale 0 to 100 (0 no effect, 100 complete control), read-out: Foxtail, Giant plant response rating
[34] = post-emergence, Postemergence, scale 0 to 100, 0 no effect, 100 complete control, read-out: Plant response rating, Foxtail, Giant
[35] = pre-emergence, Preemergence, scale 0 to 100 (0 no effect, 100 complete control), read-out: Plant response rating, Foxtail, Giant

Compound `Fc1cccc(Oc2ncc(Cl)cn2)c1-c1cc(C(F)F)on1` [Compound 55, 5-chloro-2-[2-[5-(difluoromethyl)-3-isoxazolyl]-3-fluorophenoxy]pyrimidine] has a pest or weed control at 16 g/ha [1, 9] of 5%, a pest or weed control at 31 g/ha [1, 9] of 10% and a pest or weed control at 62 g/ha [1, 10] of 30%. The pest or weed control at 125 g/ha [1, 10] was 50%, the pest or weed control at 125 g/ha ([1]; pre-emergence, Preemergence, read-out: Plant response rating (scale 0 to 100), Blackgrass) was 90% and the pest or weed control at 16 g/ha [1, 11] was 15%. For the same compound, the pest or weed control at 31 g/ha [1, 11] was 90%, the pest or weed control at 62 g/ha [1, 11] was 90% and the pest or weed control at 16 g/ha [2, 12] was 35%. The pest or weed control at 31 g/ha [2, 12] was 50%, the pest or weed control at 62 g/ha [2, 13] was 75% and the pest or weed control at 125 g/ha [2, 13] was 85%. For the same compound, the pest or weed control at 125 g/ha ([2]; pre-emergence, Preemergence, read-out: Plant response rating (scale 0 to 100), Velvetleaf) was 100%, the pest or weed control at 16 g/ha [2, 14] was 90% and the pest or weed control at 31 g/ha [2, 14] was 100%. It also gave a pest or weed control at 62 g/ha [2, 14] of 100%, a plant injury at 16 g/ha (soybean (Glycine max); [15]) of 65% and a plant injury at 31 g/ha (soybean (Glycine max); [15]) of 75%. For the same compound, the plant injury at 62 g/ha (soybean (Glycine max); [16]) was 90%, the plant injury at 125 g/ha (soybean (Glycine max); [16]) was 95% and the plant injury at 125 g/ha (soybean (Glycine max); pre-emergence, Preemergence, read-out: Plant response rating (scale 0 to 100), Soybean) was 98%. For the same compound, the plant injury at 16 g/ha (soybean (Glycine max); [17]) was 25%, the plant injury at 31 g/ha (soybean (Glycine max); [17]) was 35% and the plant injury at 62 g/ha (soybean (Glycine max); [17]) was 95%. It also gave a pest or weed control at 16 g/ha [3, 18] of 0%, a pest or weed control at 31 g/ha [3, 18] of 5% and a pest or weed control at 62 g/ha [3, 19] of 5%. It also gave a pest or weed control at 125 g/ha [3, 19] of 5%, a pest or weed control at 125 g/ha ([3]; pre-emergence, Preemergence, read-out: Plant response rating (scale 0 to 100), Nutsedge, Yellow) of 70% and a pest or weed control at 16 g/ha [3, 20] of 0%. It also gave a pest or weed control at 31 g/ha [3, 20] of 10%, a pest or weed control at 62 g/ha [3, 20] of 55% and a pest or weed control at 16 g/ha [4, 21] of 70%. The pest or weed control at 31 g/ha [4, 21] was 70%, the pest or weed control at 62 g/ha [4, 22] was 80% and the pest or weed control at 125 g/ha [4, 22] was 85%. The pest or weed control at 125 g/ha ([4]; pre-emergence, Preemergence, read-out: Plant response rating (scale 0 to 100), Morningglory) was 100%, the pest or weed control at 16 g/ha [4, 23] was 10% and the pest or weed control at 31 g/ha [4, 23] was 50%. For the same compound, the pest or weed control at 62 g/ha [4, 23] was 100%, the pest or weed control at 16 g/ha [5, 24] was 80% and the pest or weed control at 31 g/ha [5, 24] was 90%. For the same compound, the pest or weed control at 62 g/ha [5, 25] was 90%, the pest or weed control at 125 g/ha [5, 25] was 90% and the pest or weed control at 125 g/ha ([5]; pre-emergence, Preemergence, read-out: Plant response rating (scale 0 to 100), Galium) was 100%. For the same compound, the pest or weed control at 16 g/ha [5, 26] was 100%, the pest or weed control at 31 g/ha [5, 26] was 100% and the pest or weed control at 62 g/ha [5, 26] was 100%. For the same compound, the pest or weed control at 16 g/ha [6, 27] was 85%, the pest or weed control at 31 g/ha [6, 27] was 90% and the pest or weed control at 62 g/ha [6, 28] was 98%. The pest or weed control at 125 g/ha [6, 28] was 100%, the pest or weed control at 125 g/ha ([6]; pre-emergence, Preemergence, read-out: Plant response rating (scale 0 to 100), Waterhemp) was 100% and the pest or weed control at 16 g/ha [6, 29] was 100%. The pest or weed control at 31 g/ha [6, 29] was 100%, the pest or weed control at 62 g/ha [6, 29] was 100% and the pest or weed control at 16 g/ha [7, 30] was 5%. The pest or weed control at 31 g/ha [7, 30] was 10%, the pest or weed control at 62 g/ha [7, 31] was 10% and the pest or weed control at 125 g/ha [7, 31] was 15%. The pest or weed control at 125 g/ha ([7]; pre-emergence, Preemergence, read-out: Plant response rating (scale 0 to 100), Crabgrass, Large) was 100%, the pest or weed control at 16 g/ha [7, 32] was 100% and the pest or weed control at 31 g/ha [7, 32] was 100%. For the same compound, the pest or weed control at 62 g/ha [7, 32] was 100%, the pest or weed control at 16 g/ha [8, 33] was 40% and the pest or weed control at 31 g/ha [8, 33] was 50%. For the same compound, the pest or weed control at 62 g/ha [8, 34] was 40%, the pest or weed control at 125 g/ha [8, 34] was 75% and the pest or weed control at 125 g/ha ([8]; pre-emergence, Preemergence, read-out: Plant response rating (scale 0 to 100), Foxtail, Giant) was 100%. The pest or weed control at 16 g/ha [8, 35] was 100%, the pest or weed control at 31 g/ha [8, 35] was 100% and the pest or weed control at 62 g/ha [8, 35] was 100%.
